Experimental data from patent US8895733B2 (Novartis AG, priority 2010, dated 2014).

molecular target: T1, Nav 1.7 (Homo sapiens, UniProt Q15858); test: Whole-cell voltage clamp electrophysiology, automated patch clamp (marker c in Table of Examples); type: cell-based; conditions: marker c = Automated patch clamp data; read-out: Nav 1.7 activity
T1 construct: expressed in transfected cells
In short: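 A voltage protocol weighted toward inactivated-state block was used to test compounds on stably expressing cells, with pulses from −65 mV holding to −10 mV test and −100 mV. Currents came from whole-cell automated patch-clamp recordings, either IonWorks Quattro or other automated instruments, usually in perforated-patch mode.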

T1 sequence (Q15858 whole entry): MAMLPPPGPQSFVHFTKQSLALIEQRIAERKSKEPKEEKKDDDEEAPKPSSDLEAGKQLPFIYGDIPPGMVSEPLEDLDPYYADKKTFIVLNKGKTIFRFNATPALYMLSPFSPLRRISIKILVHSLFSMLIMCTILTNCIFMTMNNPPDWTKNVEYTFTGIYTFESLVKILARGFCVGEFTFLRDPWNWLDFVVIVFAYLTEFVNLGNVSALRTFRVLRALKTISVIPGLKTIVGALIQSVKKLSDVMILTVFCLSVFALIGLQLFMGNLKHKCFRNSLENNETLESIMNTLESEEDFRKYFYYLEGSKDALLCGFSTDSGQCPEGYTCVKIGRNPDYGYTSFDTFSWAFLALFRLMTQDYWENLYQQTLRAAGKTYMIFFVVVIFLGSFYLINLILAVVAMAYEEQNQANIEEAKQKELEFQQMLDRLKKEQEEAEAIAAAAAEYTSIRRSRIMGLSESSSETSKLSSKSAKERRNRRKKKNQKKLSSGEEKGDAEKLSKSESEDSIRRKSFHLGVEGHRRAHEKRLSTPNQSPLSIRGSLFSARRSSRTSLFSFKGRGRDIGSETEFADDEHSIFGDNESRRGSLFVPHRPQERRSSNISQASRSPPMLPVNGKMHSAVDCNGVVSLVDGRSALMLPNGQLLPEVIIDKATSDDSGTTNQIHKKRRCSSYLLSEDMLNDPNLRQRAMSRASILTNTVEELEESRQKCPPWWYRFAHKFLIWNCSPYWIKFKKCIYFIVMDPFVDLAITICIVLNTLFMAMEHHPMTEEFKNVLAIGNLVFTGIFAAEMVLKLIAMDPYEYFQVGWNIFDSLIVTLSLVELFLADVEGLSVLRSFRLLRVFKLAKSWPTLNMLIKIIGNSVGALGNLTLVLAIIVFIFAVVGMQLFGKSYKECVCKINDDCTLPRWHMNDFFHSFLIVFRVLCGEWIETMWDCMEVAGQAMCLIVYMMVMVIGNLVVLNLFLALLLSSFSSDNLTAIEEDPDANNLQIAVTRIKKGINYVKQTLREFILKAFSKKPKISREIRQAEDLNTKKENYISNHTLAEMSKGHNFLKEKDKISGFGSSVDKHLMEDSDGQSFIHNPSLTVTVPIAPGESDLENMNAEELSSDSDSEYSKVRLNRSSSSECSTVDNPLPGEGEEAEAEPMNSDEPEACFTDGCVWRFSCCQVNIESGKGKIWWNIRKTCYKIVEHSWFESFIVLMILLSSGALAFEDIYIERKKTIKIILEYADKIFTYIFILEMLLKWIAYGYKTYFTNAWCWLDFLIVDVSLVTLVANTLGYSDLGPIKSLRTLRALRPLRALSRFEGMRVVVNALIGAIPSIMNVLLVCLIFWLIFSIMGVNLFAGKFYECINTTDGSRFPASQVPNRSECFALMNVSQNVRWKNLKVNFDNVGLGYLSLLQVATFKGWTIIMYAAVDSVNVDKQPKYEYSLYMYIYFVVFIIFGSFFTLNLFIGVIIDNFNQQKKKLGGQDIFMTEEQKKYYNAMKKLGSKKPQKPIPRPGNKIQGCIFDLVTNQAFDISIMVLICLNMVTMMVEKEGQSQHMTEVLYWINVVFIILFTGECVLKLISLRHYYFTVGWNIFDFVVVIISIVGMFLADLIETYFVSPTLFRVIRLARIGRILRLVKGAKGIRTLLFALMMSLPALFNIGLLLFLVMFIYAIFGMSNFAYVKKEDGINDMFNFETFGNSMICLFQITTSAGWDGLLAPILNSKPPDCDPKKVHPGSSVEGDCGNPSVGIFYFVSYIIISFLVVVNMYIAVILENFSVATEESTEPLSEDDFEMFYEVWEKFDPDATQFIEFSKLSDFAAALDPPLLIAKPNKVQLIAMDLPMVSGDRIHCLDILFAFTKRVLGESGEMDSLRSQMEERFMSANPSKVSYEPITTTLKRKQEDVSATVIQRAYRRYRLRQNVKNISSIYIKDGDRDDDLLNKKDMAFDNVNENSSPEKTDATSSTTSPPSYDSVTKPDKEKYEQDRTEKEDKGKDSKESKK

SMILES | IC50 [nM]
COCCN(c1ccccc1)c1nc(N)nc(-c2noc(-c3ccc(COCC(F)(F)F)nc3)n2)n1 [Example 312, 2-N-(2-Methoxyethyl)-2-N-phenyl-6-(5-{6-[(2,2,2-trifluoroethoxy)methyl]pyridin-3-yl}-1,2,4-oxadiazol-3-yl)-1,3,5-triazine-2,4-diamine] | 139
CN(c1ccccc1)c1nc(N)nc(-c2noc([C@@H]3CCCN3CCC(F)(F)F)n2)n1 [Example 441, 2-N-Methyl-2-N-phenyl-6-{5-[(2S)-1-(3,3,3-trifluoropropyl)pyrrolidin-2-yl]-1,2,4-oxadiazol-3-yl}-1,3,5-triazine-2,4-diamine] | 1450
Cc1ccc(-c2nc(-c3nc(N)nc(N(C)c4ccccc4)n3)no2)cn1 [Example 283, 2-N-methyl-6-[5-(6-methylpyridin-3-yl)-1,2,4-oxadiazol-3-yl]-2-N-phenyl-1,3,5-triazine-2,4-diamine] | 1380
CN(c1ccccc1)c1nc(N)nc(-c2noc(C3CCN(S(=O)(=O)c4ccccc4)C3)n2)n1 (stereo not drawn) [Example 203, 6-{5-[1-(benzenesulfonyl)pyrrolidin-3-yl]-1,2,4-oxadiazol-3-yl}-2-N-methyl-2-N-phenyl-1,3,5-triazine-2,4-diamine] | 4560
Nc1nc(Nc2ccccc2)nc(-c2noc(C3CCN(S(=O)(=O)C4CCCC4)CC3)n2)n1 [Example 516, 6-{5-[1-(cyclopentanesulfonyl)piperidin-4-yl]-1,2,4-oxadiazol-3-yl}-2-N-phenyl-1,3,5-triazine2,4-diamine] | > 9560

The remaining lines, values ahead:

IC50 [nM] | SMILES
13 | CN(c1ccccc1)c1nc(N)nc(-c2noc(-c3ccc(CSCC(F)(F)F)nc3)n2)n1 [Example 316, 2-N-methyl-2-N-phenyl-6-[5-(6-{[(2,2,2-trifluoroethyl)sulfanyl]methyl}pyridin-3-yl)-1,2,4-oxadiazol-3-yl]-1,3,5-triazine-2,4-diamine]
818 | CN(c1ccccc1)c1nc(N)nc(-c2noc(-c3ccc(OCC(F)(F)F)cn3)n2)n1 [Example 340, 2-N-methyl-2-N-phenyl-6-{5-[5-(2,2,2-trifluoroethoxy)pyridin-2-yl]-1,2,4-oxadiazol-3-yl}-1,3,5-triazine-2,4-diamine]
2.5 | CN(c1ccccc1)c1nc(N)nc(-c2noc(-c3ccc(COCC(F)(F)F)cn3)n2)n1 [Example 349, 2-N-methyl-2-N-phenyl-6-(5-{5-[(2,2,2-trifluoroethoxy)methyl]pyridin-2-yl}-1,2,4-oxadiazol-3-yl)-1,3,5-triazine-2,4-diamine]
5370 | Nc1nc(Nc2ccccc2)nc(-c2noc(NC3CCCCC3)n2)n1 [Example 242, 6-[5-(cyclohexylamino)-1,2,4-oxadiazol-3-yl]-2-N-phenyl-1,3,5-triazine-2,4-diamine]
1220 | CN(c1ccccc1)c1nc(N)nc(-c2noc(N3CC(COCCC(F)(F)F)C3)n2)n1 [Example 496, 2-N-methyl-2-N-phenyl-6-(5-{3-[(3,3,3-trifluoropropoxy)methyl]azetidin-1-yl}-1,2,4-oxadiazol-3-yl)-1,3,5-triazine-2,4-diamine]
1820 | Nc1nc(Nc2ccccc2)nc(-c2noc(C(=O)N3CCC(COCC4CC4)CC3)n2)n1 [Example 463, 6-[5-({4-[(cyclopropylmethoxy)methyl]piperidin-1-yl}carbonyl)-1,2,4-oxadiazol-3-yl]-2-N-phenyl-1,3,5-triazine-2,4-diamine]
1300 | Nc1nc(Nc2ccccc2)nc(-c2noc(C(=O)N3CCC(OCC(F)(F)F)CC3)n2)n1 [Example 457, 2-N-phenyl-6-(5-{[4-(2,2,2-trifluoroethoxy)piperidin-1-yl]carbonyl}-1,2,4-oxadiazol-3-yl)-1,3,5-triazine-2,4-diamine]
4880 | CN(c1ccccc1)c1nc(N)nc(-c2noc(-c3cccnc3C(=O)NC3CC3)n2)n1 [Example 373, 3-(3-{4-amino-6-[methyl(phenyl)amino]-1,3,5-triazin-2-yl}-1,2,4-oxadiazol-5-yl)-N-cyclopropylpyridine-2-carboxamide]
2300 | CN(c1ccccc1)c1nc(N)nc(-c2noc(-c3ccc(C(F)(F)F)cn3)n2)n1 [Example 420, 2-N-methyl-2-N-phenyl-6-{5-[5-(trifluoromethyl)pyridin-2-yl]-1,2,4-oxadiazol-3-yl}-1,3,5-triazine-2,4-diamine]
241 | Nc1nc(Nc2cccc(F)c2)nc(-c2noc(C(=O)N3CCCC3)n2)n1 [Example 227, 2-N-(3-fluorophenyl)-6-{5-[(pyrrolidin-1-yl)carbonyl]-1,2,4-oxadiazol-3-yl}-1,3,5-triazine-2,4-diamine]

same assay, conditions: marker c: Automated patch clamp data; read-out: Nav 1.7 activity

SMILES | IC50 [nM]
CN(c1ccccc1)c1nc(N)nc(-c2noc(C3C[C@H]4CC[C@@H](C3)N4CCC(F)(F)F)n2)n1 (mixture of isomers) [Example 145, N-Methyl-N-phenyl-6-{5-[(1R,3R,5S)-8-(3,3,3-trifluoro-propyl)-8-aza-bicyclo[3.2.1]oct-3-yl]-[1,2,4]oxadiazol-3-yl}-[1,3,5]triazine-2,4-diamine] | 1140
CN(c1ccccc1)c1nc(N)nc(-c2noc(C3CCCO3)n2)n1 (stereo not drawn) [Example 66, N-Methyl-N-phenyl-6-[5-(tetrahydro-furan-2-yl)-[1,2,4]oxadiazol-3-yl]-[1,3,5]triazine-2,4-diamine] | 1680
CN(c1ccccc1)c1nc(N)nc(-c2noc(N3CCC(CS(=O)(=O)CC(F)(F)F)CC3)n2)n1 [Example 178, 2-N-Methyl-2-N-phenyl-6-[5-(4-{[(2,2,2-trifluoroethane)sulfonyl]methyl}piperidin-1-yl)-1,2,4-oxadiazol-3-yl]-1,3,5-triazine-2,4-diamine] | 2650
COc1ccccc1-c1nc(-c2nc(N)nc(N(C)c3cccc(C)c3)n2)no1 [Example 92, 6-[5-(2-Methoxy-phenyl)-[1,2,4]oxadiazol-3-yl]-N-methyl-N-m-tolyl-[1,3,5]triazine-2,4-diamine] | 511
CN(c1ccccc1)c1nc(N)nc(-c2noc(-c3ccc(OC4CCOC4)nc3)n2)n1 (stereo not drawn) [Example 141, 2-N-methyl-6-{5-[6-(oxolan-3-yloxy)pyridin-3-yl]-1,2,4-oxadiazol-3-yl}-2-N-phenyl-1,3,5-triazine-2,4-diamine] | 261

Next, values leading:

IC50 [nM] | SMILES
363 | CN(c1ccccc1)c1nc(N)nc(-c2noc(Cc3ccccc3)n2)n1 [Example 31, 6-(5-Benzyl-[1,2,4]oxadiazol-3-yl)-N-methyl-N-phenyl-[1,3,5]triazine-2,4-diamine]
1620 | Cc1cccnc1-c1nc(-c2nc(N)nc(N(C)c3ccccc3)n2)no1 [Example 152, 2-N-methyl-6-[5-(3-methylpyridin-2-yl)-1,2,4-oxadiazol-3-yl]-2-N-phenyl-1,3,5-triazine-2,4-diamine]
85 | CN(c1nc(N)nc(-c2noc(-c3ccc(OCC4CC4)nc3)n2)n1)c1cccc(F)c1F [Example 140, 6-{5-[6-(cyclopropylmethoxy)pyridin-3-yl]-1,2,4-oxadiazol-3-yl}-2-N-(2,3-difluorophenyl)-2-N-methyl-1,3,5-triazine-2,4-diamine]
60 | CN(c1ccccc1)c1nc(N)nc(-c2noc(N3CCC(COc4ccccc4)CC3)n2)n1 [Example 166, 2-N-methyl-6-{5-[4-(phenoxymethyl)piperidin-1-yl]-1,2,4-oxadiazol-3-yl}-2-N-phenyl-1,3,5-triazine-2,4-diamine]
